Experimental data: patent US10517862B2, “Fused heterocyclic compound derivative and application thereof” (NHWA PHARMA. CORPORATION, priority 2015, dated 2019)

Tests used:
D2 receptor = D2 receptor binding assay (3H-Spiperone, rat striatum membrane); settings: for D2 Inhibition rate (%): test compound final concentration 10^−5 M, 3H-Spiperone, rat striatum membrane; for affinity with D2 (in words): summary of in vitro assay
Method: Preparation of D2 Membrane
Rats were decapitated on ice. […] The weight of the homogenized tubes were adjusted using a balance, and centrifugation was conducted. […] Centrifugation was conducted.
(§1) Materials for the Receptor Binding Assay

5HT1A receptor = molecular target: T1, 5HT1A receptor (Rattus norvegicus, UniProt P19327); test: 5HT1A receptor binding assay (3H-8-OH-DPAT, rat striatum membrane); settings: for inhibition at 10 µM: test compound final concentration 10^−5 M, 3H-8-OH-DPAT, rat striatum membrane, read-out: 5HT1A Inhibition rate (%); for affinity with 5HT1A (in words): summary of in vitro assay
T1 construct: Rats were decapitated on ice; from tissue; host or cells: rat brain striatum
T1 sequence (P19327 1-422): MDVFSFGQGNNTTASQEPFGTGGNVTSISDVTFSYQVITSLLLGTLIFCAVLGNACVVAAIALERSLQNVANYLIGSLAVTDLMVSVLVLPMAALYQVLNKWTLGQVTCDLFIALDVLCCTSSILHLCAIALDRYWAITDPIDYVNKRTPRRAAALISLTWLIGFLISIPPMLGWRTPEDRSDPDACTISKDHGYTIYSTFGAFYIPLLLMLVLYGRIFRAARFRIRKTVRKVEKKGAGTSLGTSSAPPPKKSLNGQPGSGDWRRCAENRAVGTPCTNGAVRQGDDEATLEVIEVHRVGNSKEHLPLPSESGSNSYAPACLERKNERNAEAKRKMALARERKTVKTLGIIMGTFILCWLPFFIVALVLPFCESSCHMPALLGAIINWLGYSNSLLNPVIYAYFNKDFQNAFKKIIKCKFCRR
Method: Preparation of 5HT1A Membrane
Rats were decapitated on ice. […] Incubation at 37° C. was conducted for 10 min. […] Centrifugation was conducted at 12000 rpm, 4° C. for 20 min. […] Centrifugation was conducted and repeated 3 times.
as §1

D3 receptor = molecular target: T2, D3 receptor (Homo sapiens, UniProt P35462); test: D3 receptor assay ([3H]-Spiperone, HEK-293 cells); type: binding; settings: for inhibition at 10 µM: test compound final concentration 10 μmol/L, [3H]-Spiperone, HEK-293 cells, read-out: D3 Inhibition rate (%); for affinity with D3 (in words): summary of in vitro assay
T2 construct: expressed in transfected cells; host or cells: HEK-293
Method: Then the cells were centrifuged at 1000 rpm for 5 min, the supernatant was discarded, and the cell pellets was collected and stored in a −20° C. fridge for reservation. It was re-suspended with Tris-Cl (pH 7.4) when the assay was performed.
Tris was divided into aliquots by Genetimes Technology Inc.
Competitive binding test for receptors: 20 μl of each of the test compounds and 20 μl of the radioactive ligand together with 160 μl of the receptor proteins were added into the reaction tubes, and the final concentrations of the test compound and the positive drug were all 10 μmol/L. After 50 min of incubation in 30° C. water bath, the tubes were immediately moved to ice bath to terminate the reactions. GF/C glass fiber filter papers were used for rapid sucking filtration on a Millipore cell sample collector, 3 ml of elution buffer (50 mM Tris-HCl, PH 7.4) was applied for 3 times, and microwave was applied for 4-5 min for drying. The filter paper was moved into 0.5 ml centrifuge tube, and 500 μl of liposoluble scintillation cocktail was added. The tubes were allowed to stand still for over 30 min in dark, and the intensities of radioactivity were measured by a counter.

5HT2C receptor = molecular target: T3, 5HT2C receptor (Rattus norvegicus, UniProt P08909); test: 5HT2C receptor binding assay ([3H]-mesulergine, rat striatum membrane); settings: for inhibition at 10 µM: test compound final concentration 10^−5 M, [3H]-mesulergine, rat striatum membrane, read-out: 5HT2C Inhibition rate (%); for affinity with 5HT2C (in words): summary of in vitro assay
T3 construct: from tissue; host or cells: rat brain striatum
T3 sequence (P08909 33-460): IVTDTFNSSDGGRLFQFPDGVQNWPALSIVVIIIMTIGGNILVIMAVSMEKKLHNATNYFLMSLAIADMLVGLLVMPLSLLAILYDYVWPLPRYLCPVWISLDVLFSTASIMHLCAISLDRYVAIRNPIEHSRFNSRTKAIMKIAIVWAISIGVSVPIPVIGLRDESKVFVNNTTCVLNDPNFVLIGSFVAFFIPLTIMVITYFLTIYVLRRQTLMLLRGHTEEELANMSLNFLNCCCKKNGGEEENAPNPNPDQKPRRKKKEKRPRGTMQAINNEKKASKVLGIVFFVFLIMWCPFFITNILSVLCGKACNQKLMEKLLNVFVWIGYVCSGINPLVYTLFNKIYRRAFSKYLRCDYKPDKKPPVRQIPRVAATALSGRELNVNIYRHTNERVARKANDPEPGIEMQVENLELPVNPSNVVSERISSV
Method: Preparation of 5HT2C Membrane
Rats were decapitated on ice. […] Centrifugation was conducted.
as §1

[1] = tested on: α1 norepinephrine receptor; test: α1 norepinephrine receptor binding assay (3H-prazosin, rat cortex membrane); settings: for α1 Inhibition rate (%): test compound final concentration 10^−5 M, 3H-prazosin, rat cortex membrane; for affinity with α1 (in words): summary of in vitro assay
From the text: Preparation of Receptor Membrane of Norepinephrine
α1 Norepinephrine Receptor Binding Assay

5HT2A receptor = 5HT2A receptor (Rattus norvegicus, UniProt P14842); test: 5HT2A receptor binding assay ([3H]-Ketanserin, rat striatum membrane); settings: for inhibition at 10 µM: read-out: 5HT2A Inhibition rate (%); for affinity with 5HT2A (in words): summary of in vitro assay
Histamine H1 receptor = Histamine H1 receptor (Rattus norvegicus, UniProt P31390); test: Histamine H1 receptor binding assay (3H-pyrilamine, rat cerebellum membrane); settings: for inhibition at 10 µM: read-out: H1 Inhibition rate (%); for affinity with H1 (in words): summary of in vitro assay
Sequence of Histamine H1 receptor (P31390 whole entry): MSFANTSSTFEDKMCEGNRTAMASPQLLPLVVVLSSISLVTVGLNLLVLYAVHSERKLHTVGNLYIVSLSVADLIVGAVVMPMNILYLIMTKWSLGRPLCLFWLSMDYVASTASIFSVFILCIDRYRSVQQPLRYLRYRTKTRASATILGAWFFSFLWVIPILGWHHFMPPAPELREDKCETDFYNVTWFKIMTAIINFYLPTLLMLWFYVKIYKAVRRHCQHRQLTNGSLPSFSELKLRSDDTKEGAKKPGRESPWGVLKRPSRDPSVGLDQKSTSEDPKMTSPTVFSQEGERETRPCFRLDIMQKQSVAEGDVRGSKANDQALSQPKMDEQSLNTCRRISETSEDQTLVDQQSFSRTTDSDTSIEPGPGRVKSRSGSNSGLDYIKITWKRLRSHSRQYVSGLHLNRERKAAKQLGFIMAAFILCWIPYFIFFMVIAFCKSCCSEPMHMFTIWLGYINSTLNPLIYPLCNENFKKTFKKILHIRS
Method: The supernatant was discarded to give pellets, and homogenate F was added again to the pellets for washing. Centrifugation was conducted and repeated 3 times.
(2) 100 μL of membrane preparation was added into each reaction tube.

T2 sequence (P35462 whole entry): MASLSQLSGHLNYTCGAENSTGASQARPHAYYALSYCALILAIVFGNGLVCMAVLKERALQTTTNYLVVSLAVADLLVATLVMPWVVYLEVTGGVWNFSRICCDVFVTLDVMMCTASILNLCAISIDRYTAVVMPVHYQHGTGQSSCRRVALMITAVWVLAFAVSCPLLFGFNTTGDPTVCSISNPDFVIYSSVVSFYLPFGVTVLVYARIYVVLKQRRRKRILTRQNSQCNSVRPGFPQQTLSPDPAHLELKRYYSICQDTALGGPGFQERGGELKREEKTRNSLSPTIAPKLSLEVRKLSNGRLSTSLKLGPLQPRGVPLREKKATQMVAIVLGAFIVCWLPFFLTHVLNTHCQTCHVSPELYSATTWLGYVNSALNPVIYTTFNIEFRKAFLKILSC
Sequence of 5HT2A receptor (P14842 whole entry): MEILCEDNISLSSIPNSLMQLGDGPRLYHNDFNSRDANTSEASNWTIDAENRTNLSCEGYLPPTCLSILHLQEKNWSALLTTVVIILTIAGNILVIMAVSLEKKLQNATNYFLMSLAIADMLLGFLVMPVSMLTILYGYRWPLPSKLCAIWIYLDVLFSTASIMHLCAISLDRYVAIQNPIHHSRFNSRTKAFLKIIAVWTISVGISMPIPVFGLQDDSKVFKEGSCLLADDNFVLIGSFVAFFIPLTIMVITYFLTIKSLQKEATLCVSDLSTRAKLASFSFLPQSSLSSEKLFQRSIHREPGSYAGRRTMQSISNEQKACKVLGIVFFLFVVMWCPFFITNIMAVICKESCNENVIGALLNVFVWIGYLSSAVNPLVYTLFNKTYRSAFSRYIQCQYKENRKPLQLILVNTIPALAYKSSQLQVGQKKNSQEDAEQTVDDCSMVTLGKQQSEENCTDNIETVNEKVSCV

| Structure (SMILES) | D2 Inhibition rate (%) (D2 receptor) | inhibition at 10 µM (5HT1A receptor) | inhibition at 10 µM (D3 receptor) | inhibition at 10 µM (5HT2C receptor) | α1 Inhibition rate (%) [1] | inhibition at 10 µM (5HT2A receptor) | inhibition at 10 µM (Histamine H1 receptor) | affinity with D2 (in words) (D2 receptor) | affinity with 5HT1A (in words) (5HT1A receptor) | affinity with D3 (in words) (D3 receptor) | affinity with 5HT2C (in words) (5HT2C receptor) | affinity with α1 (in words) [1] | affinity with 5HT2A (in words) (5HT2A receptor) | affinity with H1 (in words) (Histamine H1 receptor) |
| --- | --- | --- | --- | --- | --- | --- | --- | --- | --- | --- | --- | --- | --- | --- |
| O=C(CN1CCC(c2noc3cc(F)ccc23)CC1)c1cc2c3c(c1)CCC(=O)N3CCC2 [Compound 1] | 45.89% | 54.6% | 60.9% | 84.6% | 68.75% | 84.9% | 84.9% | – | – | – | – | – | – | – |
| O=C1CCc2cc(C(O)CCN3CCC(c4noc5cc(F)ccc45)CC3)cc3c2N1CCC3 (centres unmarked) [Compound 3] | 97.67% | 91.6% | 93.9% | 61.6% | 51.42% | 92.5% | 42.5% | – | – | – | – | – | – | – |
| O=C1CCc2cc(CCCN3CCC(c4noc5cc(F)ccc45)CC3)cc3c2N1CCC3 [Compound 4] | 94.22% | 88% | 92.5% | 60% | 60.91% | 94% | 44% | – | – | – | – | – | – | – |
| O=C1CCc2cc(C(O)CCCN3CCC(c4noc5cc(F)ccc45)CC3)cc3c2N1CCC3 (centres unmarked) [Compound 6] | 98.48% | 99.6% | 98.5% | 61.6% | 60.91% | 99.1% | 49.1% | high affinities | high affinities | high affinities | low affinities | low affinities | high affinities | low affinities |
| O=C(CCCCN1CCC(c2noc3cc(F)ccc23)CC1)c1cc2c3c(c1)CCC(=O)N3CCC2 [Compound 8] | 90.17% | 89.5% | 72.4% | 59.5% | 41.19% | 93% | 45.5% | – | – | – | – | – | – | – |
| CC1CC(=O)N2CCCc3cc(C(=O)CCCN4CCC(c5noc6cc(F)ccc56)CC4)cc1c32 (centres unmarked) [Compound 9] | 91.76% | 84% | 86% | 54% | 66.62% | 90.2% | 46% | – | – | – | – | – | – | – |
| CC1CC(=O)N2CCCc3cc(CCCCN4CCC(c5noc6cc(F)ccc56)CC4)cc1c32 (centres unmarked) [Compound 10] | 85.88% | 82.9% | 80.2% | 55.9% | 46.48% | 83.5% | 43.9% | – | – | – | – | – | – | – |
| O=C(CN1CCC(c2noc3cc(F)ccc23)CC1)c1cc2c3c(c1)CCN3C(=O)CC2 [Compound 11] | 55.89% | 58.6% | 83.5% | 84.6% | 52.42% | 74.9% | 84.9% | – | – | – | – | – | – | – |
| O=C1CCc2cc(C(O)CCN3CCC(c4noc5cc(F)ccc45)CC3)cc3c2N1CC3 (centres unmarked) [Compound 13] | 96.83% | 93.6% | 94.4% | 53.6% | 53.75% | 96.9% | 46.9% | high affinities | high affinities | high affinities | low affinities | low affinities | high affinities | low affinities |
| O=C1CCc2cc(CCCN3CCC(c4noc5cc(F)ccc45)CC3)cc3c2N1CC3 [Compound 14] | 94.65% | 87% | 96.9% | 57% | 50.91% | 93.9% | 43.9% | high affinities | high affinities | high affinities | low affinities | low affinities | high affinities | low affinities |
| O=C1CCc2cc(C(O)CCCN3CCC(c4noc5cc(F)ccc45)CC3)cc3c2N1CC3 (centres unmarked) [Compound 16] | 98.34% | 99.4% | 98.3% | 55.4% | 51.19% | 98.8% | 38.8% | high affinities | high affinities | high affinities | low affinities | low affinities | high affinities | low affinities |
| O=C1CCc2cc(CCCCN3CCC(c4noc5cc(F)ccc45)CC3)cc3c2N1CC3 [Compound 17] | 99.17% | 99.1% | 96.2% | 51.1% | 46.62% | 99.4% | 35.4% | high affinities | high affinities | high affinities | low affinities | low affinities | high affinities | low affinities |
| O=C(CCCCN1CCC(c2noc3cc(F)ccc23)CC1)c1cc2c3c(c1)CCN3C(=O)CC2 [Compound 18] | 88.10% | 84.3% | 98.1% | 54.3% | 56.48% | 87.8% | 37.8% | – | – | – | – | – | – | – |
| O=C1CCc2cc(C(O)CCCCN3CCC(c4noc5cc(F)ccc45)CC3)cc3c2N1CC3 (centres unmarked) [Compound 19] | 81.45% | 87.1% | 91.5% | 57.1% | 52.47% | 81.1% | 41.1% | – | – | – | – | – | – | – |
| O=C1CCc2cc(CCCCCN3CCC(c4noc5cc(F)ccc45)CC3)cc3c2N1CC3 [Compound 20] | 83.23% | 83% | 93.2% | 53% | 68.86% | 80.3% | 49.3% | – | – | – | – | – | – | – |
